Experimental data: US9549558B2, “Herbicidal azines” (BASF SE, priority 2012, dated 2017)

How the values were obtained:
Assay type in all cases: in vivo
[1] = tested on: AMARE (Amaranthus retroflexus); experiment: greenhouse post-emergence herbicidal test
Procedure, shortened: (§1)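 Post-emergence greenhouse test on plants grown to 3–15 cm in loamy sand (~3.0% humus), sprayed with active ingredient suspended or emulsified in water. Plants held at 10-25 °C or 20-35 °C by species for 2 to 4 weeks, then damage scored visually 0–100 (100 = complete destruction of aerial parts, 0 = no damage).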

STEME (Stellaria media) [2] = experiment: greenhouse post-emergence herbicidal test
Procedure, shortened: as §1

[3] = tested on: CHEAL (Chenopodium album); experiment: greenhouse post-emergence herbicidal test; settings: 0.125 kg/ha
Procedure, shortened: as §1

[4] = tested on: ECHCG (Echinocloa crus-galli); experiment: greenhouse post-emergence herbicidal test
Procedure, shortened: as §1

LAMPU (Lamium purpureum) = experiment: greenhouse pre-emergence herbicidal test
Procedure, shortened: (§2)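 Greenhouse pots held at 10-25° C. or 20-35° C., species-dependent, after spraying compounds in water directly following sowing. Germination was promoted under transparent hoods, and the 0-100 rating reflects emergence failure or aerial destruction over 2 to 4 weeks.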

[5] = tested on: CAPBP (Capsella bursa-pastoris); experiment: greenhouse pre-emergence herbicidal test
Procedure, shortened: as §2

[6] = tested on: ABUTH (Abutilon theophrasti); experiment: greenhouse post-emergence herbicidal test
Procedure, shortened: as §1

[7] = tested on: GERDI (Geranium dissectum); experiment: greenhouse post-emergence herbicidal test
Procedure, shortened: as §1

[8] = tested on: POLCO (Polygonum convolvulus); experiment: greenhouse pre-emergence herbicidal test
Procedure, shortened: as §2

SETVI (Setaria viridis) = experiment: greenhouse pre-emergence herbicidal test
Procedure, shortened: as §2

[9] = tested on: POLCO (Polygonum convolvulus); experiment: greenhouse post-emergence herbicidal test; settings: 0.062 kg/ha
Procedure, shortened: as §1

[10] = tested on: APESV (Apera spica-venti); experiment: greenhouse pre-emergence herbicidal test
Procedure, shortened: as §2

POAAN (Poa annua) = experiment: greenhouse pre-emergence herbicidal test
Procedure, shortened: as §2

[11] = tested on: MATIN (Matricaria maritima); experiment: greenhouse pre-emergence herbicidal test; settings: 2000 g/ha
Procedure, shortened: as §2

STEME (Stellaria media) [12] = experiment: greenhouse pre-emergence herbicidal test
Procedure, shortened: as §2

[13] = tested on: ECHCG (Echinocloa crus-galli); experiment: greenhouse pre-emergence herbicidal test
Procedure, shortened: as §2

[14] = tested on: AMARE (Amaranthus retroflexus); experiment: greenhouse pre-emergence herbicidal test; settings: 1000 g/ha
Source text: The seeds of the test plants were sown separately for each species. For the pre-emergence treatment, the active ingredients, which had been suspended or emulsified in water, were applied directly after sowing by means of finely distributing nozzles. The containers were irrigated gently to promote germination and growth and subsequently covered with transparent plastic hoods until the plants had rooted. This cover caused uniform germination of the test plants, unless this had been impaired by the active ingredients. Depending on the species, the plants were kept at 10-25° C. or 20-35° C., respectively. The test period extended over 2 to 4 weeks. During this time, the plants were tended, and their response to the individual treatments was evaluated. […] A moderate herbicidal activity is given at values of at least 60, a good herbicidal activity is given at values of at least 70, and a very good herbicidal activity is given at values of at least 85. The plants used in the greenhouse experiments were of the following species: [table]

VIOAR (Viola arvensis) = experiment: greenhouse pre-emergence herbicidal test
Procedure, shortened: as §2

CC(C)(Cl)c1nc(N)nc(Nc2c(F)c(F)c(F)c(F)c2F)n1 [Example 1, 6-(1-chloro-1-methyl-ethyl)-N4-(2,3,4,5,6-pentafluorophenyl)-1,3,5-triazine-2,4-diamine]
herbicidal activity ([1]; 0.125 kg/ha): very good (a very good herbicidal activity is given at values of at least 85)
herbicidal activity (STEME (Stellaria media) [2]; 0.125 kg/ha): very good (a very good herbicidal activity is given at values of at least 85)

CC(C)(F)c1nc(N)nc(Nc2c(F)c(F)cc(F)c2F)n1 [Example 2, 6-(1-Fluoro-1-methyl-ethyl)-N4-(2,3,5,6-tetrafluorophenyl)-1,3,5-triazine-2,4-diamine]
herbicidal activity [3]: very good (a very good herbicidal activity is given at values of at least 85)
herbicidal activity ([4]; 0.125 kg/ha): very good (a very good herbicidal activity is given at values of at least 85)

CCc1nc(N)nc(Nc2c(F)c(F)c(F)c(F)c2F)n1 [Example 4]
herbicidal activity (LAMPU (Lamium purpureum); 0.125 kg/ha): very good (a very good herbicidal activity is given at values of at least 85)
herbicidal activity ([5]; 0.125 kg/ha, CAPBP): very good (a very good herbicidal activity is given at values of at least 85)

CC(C)c1nc(N)nc(Nc2c(F)c(F)c(F)c(F)c2F)n1 [Example 7]
herbicidal activity ([6]; 0.125 kg/ha): very good (a very good herbicidal activity is given at values of at least 85)
herbicidal activity ([7]; 0.125 kg/ha): very good (a very good herbicidal activity is given at values of at least 85)

CC(F)(F)c1nc(N)nc(Nc2c(F)c(F)c(F)c(F)c2F)n1 [Example 9]
herbicidal activity ([6]; 0.062 kg/ha): very good (a very good herbicidal activity is given at values of at least 85)
herbicidal activity ([7]; 0.062 kg/ha): very good (a very good herbicidal activity is given at values of at least 85)

CC(F)c1nc(N)nc(Nc2cc(F)c(F)c(F)c2)n1 (stereo not drawn) [Example 16]
herbicidal activity ([6]; 0.125 kg/ha): good (a good herbicidal activity is given at values of at least 70)
herbicidal activity (STEME (Stellaria media) [2]; 0.125 kg/ha): moderate (A moderate herbicidal activity is given at values of at least 60)

CC(C)(F)c1nc(N)nc(Nc2c(F)cccc2F)n1 [Example 24]
herbicidal activity ([8]; 0.125 kg/ha): very good (a very good herbicidal activity is given at values of at least 85)
herbicidal activity (SETVI (Setaria viridis); 0.125 kg/ha): very good (a very good herbicidal activity is given at values of at least 85)

CC(C)(F)c1nc(N)nc(Nc2c(F)ccc(Cl)c2F)n1 [Example 32]
herbicidal activity [9]: very good (a very good herbicidal activity is given at values of at least 85)
herbicidal activity ([7]; 0.062 kg/ha): very good (a very good herbicidal activity is given at values of at least 85)

CC(C)(F)c1nc(N)nc(Nc2c(F)cccc2Cl)n1 [Example 35]
herbicidal activity ([6]; 0.062 kg/ha): very good (a very good herbicidal activity is given at values of at least 85)
herbicidal activity (STEME (Stellaria media) [2]; 0.062 kg/ha): very good (a very good herbicidal activity is given at values of at least 85)

CC(C)(F)c1nc(N)nc(Nc2ccc([N+](=O)[O-])cc2F)n1 [Example 39]
herbicidal activity ([10]; 0.031 kg/ha): moderate (A moderate herbicidal activity is given at values of at least 60)

CCC(C)(F)c1nc(N)nc(Nc2c(F)c(F)c(F)c(F)c2F)n1 (stereo not drawn) [Example 48]
herbicidal activity ([1]; 0.125 kg/ha): very good (a very good herbicidal activity is given at values of at least 85)
herbicidal activity (STEME (Stellaria media) [2]; 0.125 kg/ha): very good (a very good herbicidal activity is given at values of at least 85)

CCC(F)(CC)c1nc(N)nc(Nc2c(F)c(F)c(F)c(F)c2F)n1 [Example 49]
herbicidal activity [3]: very good (a very good herbicidal activity is given at values of at least 85)
herbicidal activity ([7]; 0.125 kg/ha): very good (a very good herbicidal activity is given at values of at least 85)

CC(C)(C)c1nc(N)nc(Nc2c(F)c(F)c(F)c(F)c2F)n1 [Example 52]
herbicidal activity ([6]; 0.062 kg/ha): very good (a very good herbicidal activity is given at values of at least 85)
herbicidal activity ([7]; 0.062 kg/ha): very good (a very good herbicidal activity is given at values of at least 85)

Nc1nc(Nc2c(F)c(F)c(F)c(F)c2F)nc(C2CCC2)n1 [Example 57]
herbicidal activity ([4]; 0.062 kg/ha): very good (a very good herbicidal activity is given at values of at least 85)
herbicidal activity ([1]; 0.062 kg/ha): very good (a very good herbicidal activity is given at values of at least 85)

CC(O)c1nc(N)nc(Nc2c(F)c(F)c(F)c(F)c2F)n1 (stereo not drawn) [Example 69]
herbicidal activity (POAAN (Poa annua); 2000 g/ha): very good (a very good herbicidal activity is given at values of at least 85)
herbicidal activity [11]: very good (a very good herbicidal activity is given at values of at least 85)

CC(C)(Cl)c1nc(N)nc(Nc2c(F)cccc2F)n1 [Example 78]
herbicidal activity ([10]; 125 g/ha): good (a good herbicidal activity is given at values of at least 70)

CC1(c2nc(N)nc(Nc3c(F)c(F)c(F)c(F)c3F)n2)CCCCC1 [Example 88]
herbicidal activity (LAMPU (Lamium purpureum); 125 g/ha): very good (a very good herbicidal activity is given at values of at least 85)
herbicidal activity ([5]; 125 g/ha, CAPBP): very good (a very good herbicidal activity is given at values of at least 85)
herbicidal activity (STEME (Stellaria media) [12]; 125 g/ha): very good (a very good herbicidal activity is given at values of at least 85)

CC(C)(F)c1nc(N)nc(Nc2c(F)cc(Cl)cc2F)n1 [Example 97]
herbicidal activity (LAMPU (Lamium purpureum); 250 g/ha): good (a good herbicidal activity is given at values of at least 70)
herbicidal activity ([5]; 250 g/ha, CAPBP): good (a good herbicidal activity is given at values of at least 70)

CCC(C)(F)c1nc(N)nc(Nc2c(F)ccc(F)c2F)n1 (stereo not drawn) [Example 114]
herbicidal activity ([8]; 32 g/ha): very good (a very good herbicidal activity is given at values of at least 85)
herbicidal activity ([13]; 32 g/ha): very good (a very good herbicidal activity is given at values of at least 85)
herbicidal activity (SETVI (Setaria viridis); 32 g/ha): very good (a very good herbicidal activity is given at values of at least 85)

COc1cc(F)c(Nc2nc(N)nc(C(C)(C)F)n2)c(F)c1 [Example 116]
herbicidal activity ([10]; 1000 g/ha): very good (a very good herbicidal activity is given at values of at least 85)
herbicidal activity [14]: good (a good herbicidal activity is given at values of at least 70)

CC(C)(F)c1nc(N)nc(Nc2c(F)c(F)c(Cl)c(F)c2F)n1 [Example 128]
herbicidal activity (POAAN (Poa annua); 125 g/ha): very good (a very good herbicidal activity is given at values of at least 85)
herbicidal activity (VIOAR (Viola arvensis); 125 g/ha): good (a good herbicidal activity is given at values of at least 70)

Nc1nc(Nc2ccc(Br)cc2F)nc(C(F)F)n1 [Example 157]
herbicidal activity ([4]; 500 g/ha): very good (a very good herbicidal activity is given at values of at least 85)
herbicidal activity ([6]; 500 g/ha): very good (a very good herbicidal activity is given at values of at least 85)

CC(C)(C)c1nc(N)nc(Nc2c(F)c(F)c(Br)c(F)c2F)n1 [Example 160]
herbicidal activity (LAMPU (Lamium purpureum); 125 g/ha): very good (a very good herbicidal activity is given at values of at least 85)
herbicidal activity ([5]; 125 g/ha, CAPBP): very good (a very good herbicidal activity is given at values of at least 85)
herbicidal activity (STEME (Stellaria media) [12]; 125 g/ha): very good (a very good herbicidal activity is given at values of at least 85)

Nc1nc(Nc2c(F)c(F)c(F)c(F)c2F)nc(C2(F)C(F)(F)C(F)(F)C(F)(F)C(F)(F)C2(F)F)n1 [Example 175]
herbicidal activity ([10]; 494 g/ha): good (a good herbicidal activity is given at values of at least 70)

CC(C)(F)c1nc(N)nc(Nc2c(F)c(F)cc(-c3ccccc3)c2F)n1 [Example 192]
herbicidal activity ([4]; 1000 g/ha): very good (a very good herbicidal activity is given at values of at least 85)
herbicidal activity ([1]; 1000 g/ha): very good (a very good herbicidal activity is given at values of at least 85)
herbicidal activity ([6]; 1000 g/ha): very good (a very good herbicidal activity is given at values of at least 85)

CCC(C)(Cl)c1nc(N)nc(Nc2c(F)c(F)c(F)c(F)c2F)n1 (stereo not drawn) [Example 200]
herbicidal activity ([8]; 1000 g/ha): very good (a very good herbicidal activity is given at values of at least 85)
herbicidal activity ([13]; 1000 g/ha): very good (a very good herbicidal activity is given at values of at least 85)
herbicidal activity ([5]; 1000 g/ha, CACBP): very good (a very good herbicidal activity is given at values of at least 85)

COCN(c1nc(N)nc(C(C)(C)F)n1)c1c(F)c(F)c(F)c(F)c1F [Example 305]
herbicidal activity ([8]; 500 g/ha): very good (a very good herbicidal activity is given at values of at least 85)
herbicidal activity (STEME (Stellaria media) [12]; 500 g/ha): very good (a very good herbicidal activity is given at values of at least 85)
herbicidal activity (VIOAR (Viola arvensis); 500 g/ha): very good (a very good herbicidal activity is given at values of at least 85)
